Source: patent US20240124417A1, “COMPOUNDS USEFUL AS IMMUNOMODULATORS” (Bristol-Myers Squibb Company, priority 2019, published 2024)

Biological target: T1, PD-1/PD-L1 (Homo sapiens, UniProt Q9NZQ7)
T1 construct: TVMV protease site linker (C); made in house; host or cells: HEK293T cells
Test: PD-1/PD-L1 Homogenous Time-Resolved Fluorescence (HTRF) binding assay
Settings: PD-L1-His 10 nM, PD-1-Ig 20 nM
Procedure, shortened: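 Time-resolved FRET read-out using Eu-cryptate anti-Ig (1 nM final) and APC anti-His (20 nM final). Tagged extracellular domains were used in BSA/Tween-20-supplemented dPBS, with compound pre-incubated 15 min with PD-L1-His (10 nM) before PD-1-Ig (20 nM) was added for 15 min. Other human pairs: PD-L2-His 5 nM with PD-1-Ig 20 nM; PD-L1-Ig 10 nM with CD80-His 100 nM.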

T1 sequence (Q9NZQ7 18-239): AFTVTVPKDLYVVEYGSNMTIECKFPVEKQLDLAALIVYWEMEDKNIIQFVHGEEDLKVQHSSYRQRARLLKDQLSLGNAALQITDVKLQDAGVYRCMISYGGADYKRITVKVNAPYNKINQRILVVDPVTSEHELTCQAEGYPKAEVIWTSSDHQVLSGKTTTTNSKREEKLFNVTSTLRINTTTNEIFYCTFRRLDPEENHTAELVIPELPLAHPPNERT

**Q.** Which IC50 does the source give for `Cc1c(COc2cc(OCc3cccnn3)c(CNCc3ncc[nH]3)cc2Cl)cccc1-c1cccc(OCC2CCCN(C)C2)c1Cl` (stereo not drawn) [Example 2055, N-((1H-imidazol-2-yl)methyl)-1-(5-chloro-4-((2′-chloro-2-methyl-3′-((1-methylpiperidin-3-yl)methoxy)-[1,1′-biphenyl]-3-yl)methoxy)-2-(pyridazin-3-ylmethoxy)phenyl)methanamine] here?
**A.** The IC50 was 3.1 nM.

**Q.** Which IC50 does the source give for `CC(=O)NC1CCN(CCCOc2cccc(-c3cccc(COc4cc(OCc5cncc(C#N)c5)c(CN(C)C(C)c5nnn[nH]5)cc4Cl)c3C)c2C)CC1` (stereo not drawn) [Example 1040, N-(1-(3-((3′-((4-(((1-(1H-Tetrazol-5-yl)ethyl)(methyl)amino)methyl)-2-chloro-5-((5-cyanopyridin-3-yl)methoxy)phenoxy)methyl)-2,2′-dimethyl-[1,1′-biphenyl]-3-yl)oxy)-propyl)piperidin-4-yl)acetamide] here?
**A.** Its IC50 is 2.3 nM.

**Q.** How did the IC50 turn out when `Cc1c(COc2cc(OCc3cncc(C#N)c3)c(CN3CCCC(c4ncc[nH]4)C3)cc2Cl)cccc1-c1cccc(OCCCN2CC[C@@H](O)C2)c1C` (stereo partly drawn) [Example 1003, 5-((2-((3-(1H-Imidazol-2-yl)piperidin-1-yl)methyl)-4-chloro-5-((3′-(3-((R)-3-hydroxy-pyrrolidin-1-yl)propoxy)-2,2′-dimethyl-[1,1′-biphenyl]-3-yl)methoxy)phenoxy)methyl)-nicotinonitrile] was run?
**A.** The IC50 was 1.4 nM.

**Q.** Which IC50 does the source give for `Cc1c(COc2cc(OCc3cncc(C#N)c3)c(CNCCc3ncn[nH]3)cc2Cl)cccc1-c1cccc(OCC2CCCN(C)C2)c1Cl` (stereo not drawn) [Example 2579, 5-((2-(((2-(1H-1,2,4-triazol-5-yl)ethyl)amino)methyl)-4-chloro-5-((2′-chloro-2-methyl-3′-((1-methylpiperidin-3-yl)methoxy)-[1,1′-biphenyl]-3-yl)methoxy)phenoxy)methyl)nicotinonitrile] here?
**A.** Its IC50 is 0.5 nM.

**Q.** Which IC50 does the source give for `Cc1c(COc2cc(OCc3cncc(C#N)c3)c(CN3CCCC3c3ccn[nH]3)cc2Cl)cccc1-c1cccc(OCC2CCCN(C)C2)c1Cl` (stereo not drawn) [Example 1026, 5-((2-((2-(1H-Pyrazol-5-yl)pyrrolidin-1-yl)methyl)-4-chloro-5-((2′-chloro-2-methyl-3′-((1-methylpiperidin-3-yl)methoxy)-[1,1′-biphenyl]-3-yl)methoxy)phenoxy)methyl)-nicotinonitrile] here?
**A.** Its IC50 is 1.5 nM.

**Q.** `Cc1c(COc2cc(OCc3cncc(C#N)c3)c(CN(C)Cc3nccs3)cc2Cl)cccc1-c1cccc(OCCCN2CC[C@@H](O)C2)c1C` [Example 2533, (R)-5-((4-chloro-5-((3′-(3-(3-hydroxypyrrolidin-1-yl)propoxy)-2,2′-dimethyl-[1,1′-biphenyl]-3-yl)methoxy)-2-((methyl(thiazol-2-ylmethyl)amino)methyl)phenoxy)methyl)nicotinonitrile] was tested. Which IC50 did it give?
**A.** Its IC50 is 2.7 nM.

**Q.** With `Cc1c(COc2cc(OCc3cncc(C#N)c3)c(CNCc3cc(C)n(C)n3)cc2Cl)cccc1-c1cccc(OCCCN2CC[C@@H](O)C2)c1C` [Example 2536, (R)-5-((4-chloro-2-((((1,5-dimethyl-1H-pyrazol-3-yl)methyl)amino)methyl)-5-((3′-(3-(3-hydroxypyrrolidin-1-yl)propoxy)-2,2′-dimethyl-[1,1′-biphenyl]-3-yl)methoxy)phenoxy)methyl)nicotinonitrile] as the compound, how does the IC50 read?
**A.** The IC50 was 7.4 nM.

**Q.** `CC(=O)NC1CCN(CCCOc2cccc(-c3cccc(COc4cc(OCc5cncc(C#N)c5)c(CN(C)Cc5nnn[nH]5)cc4Cl)c3C)c2C)CC1` [Example 1044, N-(1-(3-((3′-((4-((((1H-Tetrazol-5-yl)methyl)(methyl)amino)methyl)-2-chloro-5-((5-cyanopyridin-3-yl)methoxy)phenoxy)methyl)-2,2′-dimethyl-[1,1′-biphenyl]-3-yl)oxy)-propyl)piperidin-4-yl)acetamide] was tested. Which IC50 did it give?
**A.** Its IC50 is 0.5 nM.

**Q.** How did the IC50 turn out when `Cc1c(COc2cc(OCc3cncc(C#N)c3)c(CNCc3cccnn3)cc2Cl)cccc1-c1cccc(OCC2CCCN(CCC(F)(F)F)C2)c1Cl` (stereo not drawn) [Example 2064, 5-((4-chloro-5-((2′-chloro-2-methyl-3′-((1-(3,3,3-trifluoropropyl)piperidin-3-yl)methoxy)-[1,1′-biphenyl]-3-yl)methoxy)-2-(((pyridazin-3-ylmethyl)amino)methyl)phenoxy)methyl)nicotinonitrile] was run?
**A.** The IC50 was 179 nM.

**Q.** `Cc1c(COc2cc(OCc3cncc(C#N)c3)c(CN3CCc4[nH]cnc4C3)cc2Cl)cccc1-c1cccc(OCC2CCCN(C)C2)c1Cl` (stereo not drawn) [Example 2583, 5-((4-chloro-5-((2′-chloro-2-methyl-3′-((1-methylpiperidin-3-yl)methoxy)-[1,1′-biphenyl]-3-yl)methoxy)-2-((1,4,6,7-tetrahydro-5H-imidazo[4,5-c]pyridin-5-yl)methyl)phenoxy)methyl)nicotinonitrile] was tested. Which IC50 did it give?
**A.** The IC50 was 2.3 nM.

**Q.** With `Cc1c(COc2cc(OCc3cncc(C#N)c3)c(CN(C)Cc3cn[nH]c3)cc2Cl)cccc1-c1cccc(OCC2CCCN(C)C2)c1Cl` (stereo not drawn) [Example 2581, 5-((2-((((1H-pyrazol-4-yl)methyl)(methyl)amino)methyl)-4-chloro-5-((2′-chloro-2-methyl-3′-((1-methylpiperidin-3-yl)methoxy)-[1,1′-biphenyl]-3-yl)methoxy)phenoxy)methyl)nicotinonitrile] as the compound, how does the IC50 read?
**A.** Its IC50 is 3.4 nM.

**Q.** `CCc1csc(CNCc2cc(Cl)c(OCc3cccc(-c4cccc(OCCCN5CC[C@@H](O)C5)c4C)c3C)cc2OCc2cncc(C#N)c2)n1` [Example 2548, (R)-5-((4-chloro-2-((((4-ethylthiazol-2-yl)methyl)amino)methyl)-5-((3′-(3-(3-hydroxypyrrolidin-1-yl)propoxy)-2,2′-dimethyl-[1,1′-biphenyl]-3-yl)methoxy)phenoxy)methyl)nicotinonitrile] was tested. Which IC50 did it give?
**A.** The IC50 was under 0.038 nM.

**Q.** `Cc1c(COc2cc(OCc3cncc(C#N)c3)c(CN(C)Cc3cccnn3)cc2Cl)cccc1-c1cccc(OCCCN2CC[C@@H](O)C2)c1C` [Example 2031, (R)-5-((4-chloro-5-((3′-(3-(3-hydroxypyrrolidin-1-yl)propoxy)-2,2′-dimethyl-[1,1′-biphenyl]-3-yl)methoxy)-2-((methyl(pyridazin-3-ylmethyl)amino)methyl)phenoxy)methyl)nicotinonitrile] was tested. Which IC50 did it give?
**A.** Its IC50 is 0.2 nM.

**Q.** With `Cc1c(COc2cc(OCc3cncc(C#N)c3)c(CN3CCC4C(C3)C(CO)=NN4C)cc2Cl)cccc1-c1cccc(OCC2CCCN(C)C2)c1Cl` (stereo not drawn) [Example 1029, 5-((4-Chloro-5-((2′-chloro-2-methyl-3′-((1-methylpiperidin-3-yl)methoxy)-[1,1′-biphenyl]-3-yl)methoxy)-2-((3-(hydroxymethyl)-1-methyl-1,3a,4,6,7,7a-hexahydro-5H-pyrazolo[4,3-c]pyridin-5-yl)methyl)phenoxy)methyl)nicotinonitrile] as the compound, how does the IC50 read?
**A.** The IC50 was 2 nM.

**Q.** `Cc1c(COc2cc(OCc3cncc(C#N)c3)c(CN(C)C3CCc4[nH]ncc4C3)cc2Cl)cccc1-c1cccc(OCCCN2CC[C@@H](O)C2)c1C` (stereo partly drawn) [Example 2564, 5-((4-chloro-5-((3′-(3-((R)-3-hydroxypyrrolidin-1-yl)propoxy)-2,2′-dimethyl-[1,1′-biphenyl]-3-yl)methoxy)-2-((methyl(4,5,6,7-tetrahydro-1H-indazol-5-yl)amino)methyl)phenoxy)methyl)nicotinonitrile] was tested. Which IC50 did it give?
**A.** Its IC50 is 2.7 nM.

**Q.** `Cc1c(COc2cc(OCc3cncc(C#N)c3)c(CN3CCCC(c4cnn(C)c4)C3)cc2Cl)cccc1-c1cccc(OCC2CCCN(C)C2)c1Cl` (stereo not drawn) [Example 1023, 5-((4-Chloro-5-((2′-chloro-2-methyl-3′-((1-methylpiperidin-3-yl)methoxy)-[1,1′-biphenyl]-3-yl)methoxy)-2-((3-(1-methyl-1H-pyrazol-4-yl)piperidin-1-yl)methyl)-phenoxy)methyl)nicotinonitrile] was tested. Which IC50 did it give?
**A.** The IC50 was 0.2 nM.

**Q.** Which IC50 does the source give for `Cc1cc(CN(C)Cc2cc(Cl)c(OCc3cccc(-c4cccc(OCCCN5CC[C@@H](O)C5)c4C)c3C)cc2OCc2cncc(C#N)c2)no1` [Example 2529, (R)-5-((4-chloro-5-((3′-(3-(3-hydroxypyrrolidin-1-yl)propoxy)-2,2′-dimethyl-[1,1′-biphenyl]-3-yl)methoxy)-2-((methyl((5-methylisoxazol-3-yl)methyl)amino)methyl)phenoxy)methyl)nicotinonitrile] here?
**A.** Its IC50 is 1.1 nM.

**Q.** For `Cc1c(COc2cc(OCc3cncc(C#N)c3)c(CNCc3nc4ccccc4s3)cc2Cl)cccc1-c1cccc(OCCCN2CC[C@@H](O)C2)c1C` [Example 2549, (R)-5-((2-(((benzo[d]thiazol-2-ylmethyl)amino)methyl)-4-chloro-5-((3′-(3-(3-hydroxypyrrolidin-1-yl)propoxy)-2,2′-dimethyl-[1,1′-biphenyl]-3-yl)methoxy)phenoxy)methyl)nicotinonitrile], which IC50 is on record?
**A.** Its IC50 is 33.2 nM.

**Q.** How did the IC50 turn out when `Cc1c(COc2cc(OCc3cncc(C#N)c3)c(CN3CCC(c4cc[nH]n4)C3)cc2Cl)cccc1-c1cccc(OCCCN2CC[C@@H](O)C2)c1C` (stereo partly drawn) [Example 2513, 5-((2-((3-(1H-pyrazol-3-yl)pyrrolidin-1-yl)methyl)-4-chloro-5-((3′-(3-((R)-3-hydroxypyrrolidin-1-yl)propoxy)-2,2′-dimethyl-[1,1′-biphenyl]-3-yl)methoxy)phenoxy)methyl)nicotinonitrile] was run?
**A.** The IC50 was 3.6 nM.

**Q.** How did the IC50 turn out when `Cc1c(COc2cc(OCc3cncc(C#N)c3)c(CN(C)Cc3cccnc3)cc2Cl)cccc1-c1cccc(OCCCN2CC[C@@H](O)C2)c1C` [Example 2501, (R)-5-((4-chloro-5-((3′-(3-(3-hydroxypyrrolidin-1-yl)propoxy)-2,2′-dimethyl-[1,1′-biphenyl]-3-yl)methoxy)-2-((methyl(pyridin-3-ylmethyl)amino)methyl)phenoxy)methyl)nicotinonitrile] was run?
**A.** The IC50 was 2.3 nM.

**Q.** With `Cc1c(COc2cc(OCc3cncc(C#N)c3)c(CNCc3cc[nH]n3)cc2Cl)cccc1-c1cccc(OCCCN2CCC(O)(CO)CC2)c1Cl` [Example 2012, 5-((2-((((1H-pyrazol-3-yl)methyl)amino)methyl)-4-chloro-5-((2′-chloro-3′-(3-(4-hydroxy-4-(hydroxymethyl)piperidin-1-yl)propoxy)-2-methyl-[1,1′-biphenyl]-3-yl)methoxy)phenoxy)methyl)nicotinonitrile] as the compound, how does the IC50 read?
**A.** Its IC50 is 2.6 nM.
